According to PMC12669040, “Tumour-specific STING agonist synthesis via a two-component prodrug system” (Nature Chemistry, 2025):
Values joined by “and” are separate entries in the source; they are usually repeats but may differ in a detail not shown here. Identical values can stand only once.

Legend:
[1] = Haematotoxicity, CT26mβGUS model; assay type: in vivo, BALB/c mice; set-up: WBC / RBC: unit not given here
Excerpt: MCV: Mean Corpuscular Volume; MCH: Mean Corpuscular Haemoglobin; WBC: White Blood Cell Count; PLT: Platelet Count; RDW-CV: Red Cell Distribution Width - Coefficient of Variation; MPV: Mean Platelet Volume. RBC: red blood cell count; HGB: haemoglobin; HCT: haematocrit; MCV: Mean Corpuscular Volume; MCH: Mean Corpuscular Haemoglobin; WBC: White Blood Cell Count; PLT: Platelet Count; RDW-CV: Red Cell Distribution Width - Coefficient of Variation; MPV: Mean Platelet Volume. […] Source data

[2] = test system: Hs578T xenografts; assay: Hs578T zebrafish xenograft model; conditions: for 2dpi phagocytosis: individual larvae; for M1 (M1/M2) / M2 (M1/M2) / Caspase-3 / TAM / Tumor Size: replicate values; for apoptosis (activated Caspase 3) in xenografts: 4 dpi, MSA2 15 μM, SC2S 0.62 μM, β-GlcA-N1/E4 20 μM each
[3] = Day0, individual mice, in % (unit assumed)
[4] = Day0, individual mice, in pg (unit assumed)
[5] = Day5, individual mice, in % (unit assumed)
[6] = Day5, individual mice, in fL (unit assumed)
[7] = Day5, individual mice, in g/dL (unit assumed)

SMILES: COc1cc2cc(C(=O)CCC(=O)O)sc2cc1OC [MSA2]
- HGB ([1]; Day0, individual mice): 16.5 and 15.6 (2×) and 14.5
- MPV ([1]; Day0, individual mice): 6.5 and 7.1 and 7.9
- PLT ([1]; Day0, individual mice): 1210 and 892 and 696 and 576
- RBC ([1]; Day0, individual mice): 10.94 and 10.54 and 10.66 and 9.7
- RDW-CV ([1]; Day0, individual mice): 14.4 and 15.1 (2×) and 15.3
- WBC ([1]; Day0, individual mice): 7.1 and 7.7 and 8.8 and 8.2
- HCT [1, 3]: 53.4 and 52.7 and 52.8 and 48.8
- MCV ([1]; Day0, individual mice, in fL (unit assumed)): 48.8 and 50 and 49.5 and 50.3
- MCH [1, 4]: 15.1 and 14.8 and 14.6 and 14.9
- MCH ([1]; Day5, individual mice): 14.9 pg (3×) and 15 pg
- MPV ([1]; Day5, individual mice): 6.6 and 7.6 (2×) and 6.8
- PLT ([1]; Day5, individual mice): 1244 and 920 and 808 and 855
- RBC ([1]; Day5, individual mice): 10 and 8.31 and 9.87 and 7.92
- RDW-CV ([1]; Day5, individual mice): 16 and 14.5 and 14.4 (2×)
- WBC ([1]; Day5, individual mice): 8.6 and 8 and 9.3 and 7.4
- HCT [1, 5]: 51.7 and 43.1 and 50.2 and 40.6
- MCV [1, 6]: 51.7 and 51.9 and 50.9 and 51.3
- HGB [1, 7]: 14.9 and 12.4 and 14.8 and 11.8
- red blood cells, haemoglobin and haematocrit ([1]; MSA2 5 mg kg^−1 IT): modest decreases
- 2dpi phagocytosis ([2]; experiment 230522): 35 and 14 and 22 and 25 and 15
- 2dpi phagocytosis ([2]; experiment 230726): 13 and 22 and 48 and 31 and 19 and 33 and 17
- M1 (M1/M2) ([2]; 2dpi): 60 and 67.5676 and 80 and 70.8333 and 69.7674 and 76.1905 and 64.1026 and 75 and 95.082 and 71.7949 and 80.6452 and 74.4681 and 72.4638 and 63.6364
- M2 (M1/M2) ([2]; 2dpi): 40 and 32.4324 and 20 and 29.1667 and 30.2326 and 23.8095 and 35.8974 and 25 and 4.918 and 28.2051 and 19.3548 and 25.5319 and 27.5362 and 36.3636
- apoptosis (activated Caspase 3) in xenografts [2]: significantly induced apoptosis
- M1 (M1/M2) ([2]; 4dpi): 35.7143 and 18.1818 and 40 (2×) and 21.0526 and 50 (3×) and 20 and 60 (2×) and 61.1111 and 28.125 and 25
- M2 (M1/M2) ([2]; 4dpi): 64.2857 and 81.8182 and 60 (2×) and 78.9474 and 50 (3×) and 80 and 40 (2×) and 38.8889 and 71.875 and 75
- Caspase-3 ([2]; experiment 230522): 1.291 and 1.3466 and 1.247 and 1.364 and 1.32 and 1.585 and 1.384 and 1.691 and 1.403 and 2.142 and 1.383
- TAM ([2]; experiment 230522): 1.785 and 1.828 and 1.882 and 4.773 and 1.144 and 1.242 and 2.18 and 1.55 and 1.171
- Tumor Size ([2]; experiment 230522): 0.8654 and 0.6638 and 0.8064 and 0.8329 and 0.9735 and 0.8457 and 0.6726 and 0.8811 and 0.8231 and 0.9824 and 0.6461
- Caspase-3 ([2]; experiment 230726): 1.714 and 1.239 and 2.528 and 1.801 and 0.8175 and 0.6878 and 1.986 and 0.813 and 0.7306 and 1.755
- TAM ([2]; experiment 230726): 1.62 and 4.474 and 2.224 and 3.257 and 1.206 and 1.259
- Tumor Size ([2]; experiment 230726): 0.8603 and 1.051 and 0.553 and 0.606 and 0.4686 and 0.6683 and 0.7425 and 0.3533 and 0.734 and 0.8296

SMILES: COc1cc2sc(C(=O)CCC(=O)O)cc2cc1SCCSc1cc2cc(C(=O)CCC(=O)O)sc2cc1OC [SC2S]
- MCV ([1]; Day0, individual mice): 55 and 51.6 and 50 (2×)
- MPV ([1]; Day0, individual mice): 8 and 7.6 and 6.7 and 7.2
- PLT ([1]; Day0, individual mice): 670 and 896 and 1143 and 870
- RBC ([1]; Day0, individual mice): 9.65 and 10.31 and 10.59 and 10.89
- WBC ([1]; Day0, individual mice): 11 and 10 and 8.7 and 8.4
- HCT [1, 3]: 53.1 and 53.2 and 53 and 54.5
- RDW-CV [1, 3]: 14.7 and 15.1 and 14.8 and 15
- HGB ([1]; Day0, individual mice, in g/dL (unit assumed)): 14.6 and 15.3 and 15.8 and 16.3
- MCH [1, 4]: 15.1 and 14.8 and 14.9 and 15
- MCH ([1]; Day5, individual mice): 15.1 and 14.7 and 15.2 (2×)
- MPV ([1]; Day5, individual mice): 7.6 (2×) and 6.6
- PLT ([1]; Day5, individual mice): 155 and 541 and 770 and 1292
- RBC ([1]; Day5, individual mice): 8.22 and 9.33 and 9.82 and 10.19
- WBC ([1]; Day5, individual mice): 9.2 and 10.4 and 6.6 (2×)
- HCT [1, 5]: 42 and 49.9 and 50.4 and 52
- RDW-CV [1, 5]: 14 and 14.3 and 16.7 and 15.7
- MCV [1, 6]: 51.1 and 50.3 and 51.3 and 51
- HGB [1, 7]: 12.4 and 13.7 and 14.9 and 15.5
- 2dpi phagocytosis ([2]; experiment 230522): 35 and 30 and 42 and 17 and 0* and 22 and 16
- 2dpi phagocytosis ([2]; experiment 230726): 62 and 48 and 23 and 18 and 44 and 12 and 10 and 20
- M1 (M1/M2) ([2]; 2dpi): 56.4103 and 69.5652 and 75.5556 and 67.5 and 90 and 84.6154 and 78.7234 and 82.8947 and 70.4918 and 72.549 and 65.3846 and 65 and 82.6087 and 55.5556 and 72.2222
- M2 (M1/M2) ([2]; 2dpi): 43.5897 and 30.4348 and 24.4444 and 32.5 and 10 and 15.3846 and 21.2766 and 17.1053 and 29.5082 and 27.451 and 34.6154 and 35 and 17.3913 and 44.4444 and 27.7778
- apoptosis (activated Caspase 3) in xenografts [2]: significantly induced apoptosis
- M1 (M1/M2) ([2]; 4dpi): 36.3636 and 58.3333 (2×) and 42.8571 and 37.5 and 12.5 and 25 and 54.5455 and 41.1765 and 31.4286 and 70.3704 and 40 and 39.1304 and 37.037 and 33.3333
- M2 (M1/M2) ([2]; 4dpi): 63.6364 and 41.6667 (2×) and 57.1429 and 62.5 and 87.5 and 75 and 45.4545 and 58.8235 and 68.5714 and 29.6296 and 60 and 60.8696 and 62.963 and 66.6667
- Caspase-3 ([2]; experiment 230522): 1.443 and 1.289 and 1.712 and 1.324 and 1.988 and 1.517 and 1.448 and 1.484 and 1.486 and 2.204 and 2.224
- TAM ([2]; experiment 230522): 2.1705 and 1.352 and 2.571 and 2.448 and 1.557 and 1.167
- Tumor Size ([2]; experiment 230522): 1.033 and 0.4622 and 0.7179 and 0.9145 and 1.19 and 0.9204 and 0.6815 and 0.7277 and 0.5409 and 0.7788
- Caspase-3 ([2]; experiment 230726): 1.045 and 1.374 and 1.091 and 2.171 and 0.9199 and 1.451 and 2.115
- TAM ([2]; experiment 230726): 1.204 and 2.4711 and 1.9907 and 1.109 and 1.5815 and 1.362 and 3.515 and 1.246
- Tumor Size ([2]; experiment 230726): 0.495 and 0.08364 and 0.7374 and 1.174 and 0.7912 and 0.9371 and 0.8603
